Test results published in patent publication US20250115620A1, “BRIDGED TRICYCLIC CARBAMOYLPYRIDONE COMPOUNDS AND USES THEREOF” (Gilead Sciences, Inc., priority 2022, published 2025).
Where two headings read alike, the source gives them in different places.

Legend:
HIV-1 (IIIB) = experiment: microbe, parasite or virus in culture; assay type: cell-based; conditions: Human immunodeficiency virus 1, IIIB, MT4, 120 h, HIV-1 (IIIB) in MT-4 cells, 5 days incubation, Cell Titer Glo; read-out: MT4 EC50
pLAI reporter virus = experiment: microbe, parasite or virus in culture; assay type: cell-based, HIV; conditions: Human immunodeficiency virus 1, MT4, 72 h
in vitro = conditions: human, uninfected MT-4 cells

SMILES	EC50 (HIV-1 (IIIB)) [nM]	EC50 (pLAI reporter virus; read-out: RLUC 50% HS EC50) [nM]	EC50 (pLAI reporter virus; read-out: RLUC CCM EC50) [nM]	CC50 at 5 days (in vitro) [nM]
C[C@H]1CC[C@@]2(Cc3ccccc3O2)[C@H]2CN1C(=O)c1c(O)c(=O)c(C(=O)NCc3c(F)cc(F)cc3F)cn12 [Example 144, (2R,3′S,7′R)-12′-hydroxy-3′-methyl-1′,11′-dioxo-N-(2,4,6-trifluorobenzyl)-1′,4′,5′,11′-tetrahydro-3H,3′H,7′H-spiro[benzofuran-2,6′-[2,7]methanopyrido[1,2-a][1,4]diazonine]-10′-carboxamide]	1.3	2.3	0.1	4810
COC1=NS[C@]2(CC[C@H](C)N3C[C@H]2n2cc(C(=O)NCc4ccc(F)cc4F)c(=O)c(O)c2C3=O)C1 [Example 145, (3′S,5R,7′R)—N-(2,4-difluorobenzyl)-12′-hydroxy-3-methoxy-3′-methyl-1′,11′-dioxo-1′,4′,5′,11′-tetrahydro-3′H,4H,7′H-spiro[isothiazole-5,6′-[2,7]methanopyrido[1,2-a][1,4]diazonine]-10′-carboxamide]	3.8	7.5	1.1	≥ 50000
COc1ccc(CN2C(C)=NO[C@@]23CC[C@H](C)N2C[C@H]3n3cc(C(=O)NCc4ccc(F)cc4F)c(=O)c(O)c3C2=O)cc1 [Example 147, (3′S,5R,7′R)—N-(2,4-difluorobenzyl)-12′-hydroxy-4-(4-methoxybenzyl)-3,3′-dimethyl-1′,11′-dioxo-1′,4′,5′,11′-tetrahydro-3′H,4H,7′H-spiro[[1,2,4]oxadiazole-5,6′-[2,7]methanopyrido[1,2-a][1,4]diazonine]-10′-carboxamide]	4.1	12.3	1.3	7530
CC1=NO[C@@]2(CC[C@H](C)N3C[C@H]2n2cc(C(=O)NCc4ccc(F)cc4F)c(=O)c(O)c2C3=O)N1 [Example 148, (3′S,5R,7′R)—N-(2,4-difluorobenzyl)-12′-hydroxy-3,3′-dimethyl-1′,11′-dioxo-1′,4′,5′,11′-tetrahydro-3′H,4H,7′H-spiro[[1,2,4]oxadiazole-5,6′-[2,7]methanopyrido[1,2-a][1,4]diazonine]-10′-carboxamide]	3.4	21	1.1	≥ 50000
CC1=NO[C@@]2(CC[C@H](C)N3C[C@H]2n2cc(C(=O)NCc4ccc(F)cc4F)c(=O)c(O)c2C3=O)N1C [Example 149a, (3′S,5R,7′R)—N-(2,4-difluorobenzyl)-12′-hydroxy-3,3′,4-trimethyl-1′,11′-dioxo-1′,4′,5′,11′-tetrahydro-3′H,4H,7′H-spiro[[1,2,4]oxadiazole-5,6′-[2,7]methanopyrido[1,2-a][1,4]diazonine]-10′-carboxamide]	2	4.8	0.8	≥ 50000
CC1=N[C@]2(CC[C@H](C)N3C[C@H]2n2cc(C(=O)NCc4ccc(F)cc4F)c(=O)c(O)c2C3=O)ON1C [Example 149b, (3′S,5R,7′R)—N-(2,4-difluorobenzyl)-12′-hydroxy-2,3,3′-trimethyl-1′,11′-dioxo-1′,4′,5′,11′-tetrahydro-2H,3′H,7′H-spiro[[1,2,4]oxadiazole-5,6′-[2,7]methanopyrido[1,2-a][1,4]diazonine]-10′-carboxamide]	1.4	5.7	0.4	39100
[2H]C([2H])([2H])OC1=NO[C@@]2(CC[C@H](C)N3C[C@H]2n2cc(C(=O)NCc4ccc(F)cc4F)c(=O)c(O)c2C3=O)C1 [Example 153, (3′S,5S,7′R)—N-(2,4-difluorobenzyl)-12′-hydroxy-3-(methoxy-d3)-3′-methyl-1′,11′-dioxo-1′,4′,5′,11′-tetrahydro-3′H,4H,7′H-spiro[isoxazole-5,6′-[2,7]methanopyrido[1,2-a][1,4]diazonine]-10′-carboxamide]	0.9	16.1	0.2	17600
C[C@H]1CC[C@]2(CC(S(C)(=O)=O)=NO2)[C@H]2CN1C(=O)c1c(O)c(=O)c(C(=O)NCc3c(F)cc(F)cc3F)cn12 [Example 154, (3′S,5S,7′R)-12′-hydroxy-3′-methyl-3-(methylsulfonyl)-1′,11′-dioxo-N-(2,4,6-trifluorobenzyl)-1′,4′,5′,11′-tetrahydro-3′H,4H,7′H-spiro[isoxazole-5,6′-[2,7]methanopyrido[1,2-a][1,4]diazonine]-10′-carboxamide]	4.2	22.1	1.2	4140
CC1=NO[C@@]2(CC[C@H](CF)N3C[C@H]2n2cc(C(=O)NCc4ccc(F)cc4F)c(=O)c(O)c2C3=O)C1 [Example 155, (3′R,5S,7′R)—N-(2,4-difluorobenzyl)-3′-(fluoromethyl)-12′-hydroxy-3-methyl-1′,11′-dioxo-1′,4′,5′,11′-tetrahydro-3′H,4H,7′H-spiro[isoxazole-5,6′-[2,7]methanopyrido[1,2-a][1,4]diazonine]-10′-carboxamide]	1	59.8	0.5	28400
C[C@H]1CC[C@]2(CC(=O)NO2)[C@H]2CN1C(=O)c1c(O)c(=O)c(C(=O)NCc3ccc(F)cc3F)cn12 [Example 156, (3′S,5S,7′R)—N-(2,4-difluorobenzyl)-12′-hydroxy-3′-methyl-1′,3,11′-trioxo-1′,4′,5′,11′-tetrahydro-3′H,7′H-spiro[isoxazolidine-5,6′-[2,7]methanopyrido[1,2-a][1,4]diazonine]-10′-carboxamide]	18.1	79.8	25	≥ 50000
CCN1O[C@@]2(CC[C@H](C)N3C[C@H]2n2cc(C(=O)NCc4c(F)cc(F)cc4F)c(=O)c(O)c2C3=O)CC1=O [Example 157, (3′S,5S,7′R)-2-ethyl-12′-hydroxy-3′-methyl-1′,3,11′-trioxo-N-(2,4,6-trifluorobenzyl)-1′,4′,5′,11′-tetrahydro-3′H,7′H-spiro[isoxazolidine-5,6′-[2,7]methanopyrido[1,2-a][1,4]diazonine]-10′-carboxamide]	1.1	4.1	0.3	≥ 50000
C[C@H]1CC[C@]2(CC(=O)N(Cc3ccc(Br)cc3)O2)[C@H]2CN1C(=O)c1c(O)c(=O)c(C(=O)NCc3c(F)cc(F)cc3F)cn12 [Example 158, (3′S,5S,7′R)-2-(4-bromobenzyl)-12′-hydroxy-3′-methyl-1′,3,11′-trioxo-N-(2,4,6-trifluorobenzyl)-1′,4′,5′,11′-tetrahydro-3′H,7′H-spiro[isoxazolidine-5,6′-[2,7]methanopyrido[1,2-a][1,4]diazonine]-10′-carboxamide]	1.7	3.2	0.8	2120
C[C@H]1CC[C@]2(CC(=O)N(Cc3ccccn3)O2)[C@H]2CN1C(=O)c1c(O)c(=O)c(C(=O)NCc3c(F)cc(F)cc3F)cn12 [Example 159, (3′S,5S,7′R)-12′-hydroxy-3′-methyl-1′,3,11′-trioxo-2-(pyridin-2-ylmethyl)-N-(2,4,6-trifluorobenzyl)-1′,4′,5′,11′-tetrahydro-3′H,7′H-spiro[isoxazolidine-5,6′-[2,7]methanopyrido[1,2-a][1,4]diazonine]-10′-carboxamide]	1.8	1.1	0.8	≥ 50000
C[C@H]1CC[C@]2(CC(=O)N(Cc3cccnc3)O2)[C@H]2CN1C(=O)c1c(O)c(=O)c(C(=O)NCc3c(F)cc(F)cc3F)cn12 [Example 160, (3′S,5S,7′R)-12′-hydroxy-3′-methyl-1′,3,11′-trioxo-2-(pyridin-3-ylmethyl)-N-(2,4,6-trifluorobenzyl)-1′,4′,5′,11′-tetrahydro-3′H,7′H-spiro[isoxazolidine-5,6′-[2,7]methanopyrido[1,2-a][1,4]diazonine]-10′-carboxamide]	1.5	0.5	1.6	≥ 50000
C[C@H]1CC[C@]2(CC(=O)N(Cc3nc4ccccc4s3)O2)[C@H]2CN1C(=O)c1c(O)c(=O)c(C(=O)NCc3c(F)cc(F)cc3F)cn12 [Example 161, (3′S,5S,7′R)-2-(benzo[d]thiazol-2-ylmethyl)-12′-hydroxy-3′-methyl-1′,3,11′-trioxo-N-(2,4,6-trifluorobenzyl)-1′,4′,5′,11′-tetrahydro-3′H,7′H-spiro[isoxazolidine-5,6′-[2,7]methanopyrido[1,2-a][1,4]diazonine]-10′-carboxamide]	1.4	0.9	0.4	≥ 50000
C[C@H]1CC[C@]2(CC(=O)N(Cc3nc4ccccc4[nH]3)O2)[C@H]2CN1C(=O)c1c(O)c(=O)c(C(=O)NCc3c(F)cc(F)cc3F)cn12 [Example 162, (3′S,5S,7′R)-2-((1H-benzo[d]imidazol-2-yl)methyl)-12′-hydroxy-3′-methyl-1′,3,11′-trioxo-N-(2,4,6-trifluorobenzyl)-1′,4′,5′,11′-tetrahydro-3′H,7′H-spiro[isoxazolidine-5,6′-[2,7]methanopyrido[1,2-a][1,4]diazonine]-10′-carboxamide]	3.6	5.7	1.4	≥ 50000
C[C@H]1CC[C@]2(CC(=O)N(Cc3nc4ccccc4n3C)O2)[C@H]2CN1C(=O)c1c(O)c(=O)c(C(=O)NCc3c(F)cc(F)cc3F)cn12 [Example 163, (3′S,5S,7′R)-12′-hydroxy-3′-methyl-2-((1-methyl-1H-benzo[d]imidazol-2-yl)methyl)-1′,3,11′-trioxo-N-(2,4,6-trifluorobenzyl)-1′,4′,5′,11′-tetrahydro-3′H,7′H-spiro[isoxazolidine-5,6′-[2,7]methanopyrido[1,2-a][1,4]diazonine]-10′-carboxamide]	1.5	2	0.9	≥ 50000
